Laboratory results as given in patent publication US20230227405A1, “5-OXOPYRROLIDINE-3-CARBOXAMIDES AS NAV1.8 INHIBITORS” (MERCK SHARP & DOHME CORP., priority 2020, published 2023).

Molecular target: T1, human Nav1.8 (Homo sapiens, UniProt Q9Y5Y9)
T1 construct: expressed in transfected cells
Assay: Qube® automated patch-clamp assay, Nav1.8
Type: cell-based
Conditions: human Nav1.8 stably expressed in HEK 293 cells; whole-cell voltage clamp, room temperature; read-out: IC50 values (nM) for Examples in the Nav1.8 Qube® Assay
Protocol: Compounds were tested on human Nav1.8 and Nav1.5 channels stably expressed in human embryo kidney (HEK) 293 cells. Sodium current measurements on Qube® were conducted as follows: automated 384-well patch-clamp assays on the Qube® platform (Sophion Biosciences) were used to measure the inhibition of sodium flow through human Nav1.8 and Nav1.5 channels. Whole-cell voltage-clamp recordings were performed in QChips® (Sophion Biosciences) at room temperature. Nav1.8 current measurements on Qube® were obtained as follows: Nav1.8 currents were elicited with a 10 second 1 Hertz (Hz) pulse train from a holding potential of −90 millivolts (mV), delivered to the cells once per minute in the control condition (DMSO only) and after compound addition. The 1 hertz pulse train stimulation consisted of ten test pulses to 10 millivolt (mV) for 20 milliseconds (ms), each of which was followed by a 980 millisecond repolarization to −67 millivolts. At the end of the 10 second pulse train stimulation, a 5 second hyperpolarization step to −100 millivolt (mV) was used to recover Nav1.8 from fast inactivation. The peak currents elicited by the 1st and 10th test pulses were used to determine IC50 values for resting inhibition and inactivated state inhibition. Nav1.5 current measurements on Qube® were obtained as follows: Nav1.5 currents were elicited with a 20 second 3 Hertz pulse train in the control condition (DMSO only) and after compound addition. The pulse train consisted of sixty 20 millisecond test pulses to 0 millivolt from a holding potential of −80 millivolt (mV). The average peak currents elicited by the last 3 test pulses were used to determine IC50 values for Nav1.5 inhibition.
The following buffers were used for the Qube® recordings: External buffer for Nav1.8 Qube® recording: 150 NaCl, 2 CaCl2, 5 KCl, 1 Mg Cl2, 10 HEPES, 12 Dextrose; External buffer for Qube® Nav1.5 recording: 120 N-Methyl-D-Glucamine, 40 NaCl, 1 KCl, 2.7 CaCl2, 5 HEPES, 0.5 MgCl2; and Internal buffer for Qube® recording: 120 CsF, 30 CsCl, 10 EGTA, 5 HEPES, 5 NaF, 2 MgCl2.
For all Qube® experiments offline analysis was used to determine percent inhibition as a function of drug concentration. IC50 values were determined by fitting to the Hill equation.

T1 sequence (Q9Y5Y9 whole entry): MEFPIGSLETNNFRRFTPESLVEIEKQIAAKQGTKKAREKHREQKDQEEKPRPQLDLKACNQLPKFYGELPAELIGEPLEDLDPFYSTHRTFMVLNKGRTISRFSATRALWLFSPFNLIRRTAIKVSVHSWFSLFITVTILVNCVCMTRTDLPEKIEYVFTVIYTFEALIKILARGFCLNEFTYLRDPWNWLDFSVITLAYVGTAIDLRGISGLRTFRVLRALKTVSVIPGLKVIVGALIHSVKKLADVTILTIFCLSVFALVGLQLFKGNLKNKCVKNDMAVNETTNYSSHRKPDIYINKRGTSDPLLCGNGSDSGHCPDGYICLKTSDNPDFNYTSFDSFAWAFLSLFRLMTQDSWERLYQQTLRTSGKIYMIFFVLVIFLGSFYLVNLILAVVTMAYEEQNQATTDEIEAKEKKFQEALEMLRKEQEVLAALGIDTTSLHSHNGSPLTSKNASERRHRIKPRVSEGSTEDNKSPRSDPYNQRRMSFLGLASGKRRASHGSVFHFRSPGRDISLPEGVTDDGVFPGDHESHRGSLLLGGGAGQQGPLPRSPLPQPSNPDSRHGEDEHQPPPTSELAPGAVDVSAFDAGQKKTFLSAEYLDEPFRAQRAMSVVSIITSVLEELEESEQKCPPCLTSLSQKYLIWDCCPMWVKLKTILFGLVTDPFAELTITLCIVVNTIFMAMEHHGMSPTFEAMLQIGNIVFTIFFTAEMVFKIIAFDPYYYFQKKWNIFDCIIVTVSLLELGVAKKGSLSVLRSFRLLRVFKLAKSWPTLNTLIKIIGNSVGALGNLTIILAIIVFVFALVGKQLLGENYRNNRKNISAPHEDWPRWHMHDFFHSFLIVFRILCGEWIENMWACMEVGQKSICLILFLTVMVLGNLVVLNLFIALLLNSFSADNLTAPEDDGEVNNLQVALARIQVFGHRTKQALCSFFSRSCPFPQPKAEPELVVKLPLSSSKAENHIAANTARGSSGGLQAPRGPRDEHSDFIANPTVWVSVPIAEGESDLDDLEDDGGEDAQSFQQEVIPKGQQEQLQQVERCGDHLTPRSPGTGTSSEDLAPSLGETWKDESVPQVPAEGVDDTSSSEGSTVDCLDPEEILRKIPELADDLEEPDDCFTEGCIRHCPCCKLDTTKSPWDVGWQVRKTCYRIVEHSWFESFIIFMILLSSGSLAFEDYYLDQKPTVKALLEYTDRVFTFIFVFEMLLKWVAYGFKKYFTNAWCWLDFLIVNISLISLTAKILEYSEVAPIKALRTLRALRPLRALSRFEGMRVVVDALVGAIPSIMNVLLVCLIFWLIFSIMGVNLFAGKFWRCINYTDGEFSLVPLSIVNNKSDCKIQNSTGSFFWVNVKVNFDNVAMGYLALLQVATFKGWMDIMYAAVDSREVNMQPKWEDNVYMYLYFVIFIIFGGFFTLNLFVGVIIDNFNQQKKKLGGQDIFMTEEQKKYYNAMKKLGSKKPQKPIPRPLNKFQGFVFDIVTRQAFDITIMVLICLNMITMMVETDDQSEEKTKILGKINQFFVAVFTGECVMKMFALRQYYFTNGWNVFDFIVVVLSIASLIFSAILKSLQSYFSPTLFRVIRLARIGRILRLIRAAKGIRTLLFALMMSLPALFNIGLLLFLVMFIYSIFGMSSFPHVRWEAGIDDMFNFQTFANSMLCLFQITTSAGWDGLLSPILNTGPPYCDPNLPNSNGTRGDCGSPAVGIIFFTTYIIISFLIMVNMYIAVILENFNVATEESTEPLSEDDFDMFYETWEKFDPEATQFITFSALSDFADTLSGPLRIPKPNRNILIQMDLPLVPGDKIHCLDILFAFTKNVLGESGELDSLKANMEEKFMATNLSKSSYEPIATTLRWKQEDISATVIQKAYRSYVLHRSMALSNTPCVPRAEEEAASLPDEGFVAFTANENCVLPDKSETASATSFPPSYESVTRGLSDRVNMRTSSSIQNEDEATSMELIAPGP

IC50 [nM] | SMILES
28 | O=C1C[C@H](C(=O)NC(c2ccc(Cl)cc2)c2ccc(OC(F)(F)F)cc2)CN1 (single isomer, unassigned) [Example 12A, (S)-N-((R or S)-(4-chlorophenyl)(4-(trifluoromethoxy)phenyl)methyl)-5-oxopyrrolidine-3-carboxamide]
16 | O=C1C[C@H](C(=O)NC(c2ccc(OC(F)(F)F)cc2)c2cccc(Cl)c2)CN1 (single isomer, unassigned) [Example 19A, (S)-N-((R or S)-(3-chlorophenyl)(4-(trifluoromethoxy)phenyl)methyl)-5-oxopyrrolidine-3-carboxamide]
17 | O=C1C[C@H](C(=O)NC(c2ccc(OC(F)(F)F)cc2)c2cccc(Cl)c2)CN1 (single isomer, unassigned) [Example 19B, (S)-N-((R or S)-(3-chlorophenyl)(4-(trifluoromethoxy)phenyl)methyl)-5-oxopyrrolidine-3-carboxamide]
9.4 | O=C1C[C@H](C(=O)NC(c2ccc(Cl)cc2)c2ccc(Cl)c(C(F)(F)F)c2)CN1 (single isomer, unassigned) [Example 14B, (S—N—((R or S)-(4-chloro-3-(trifluoro-methyl)phenyl)(4-chlorophenyl)methyl)-5-oxopyrrolidine-3-carboxamide]

Second part, the molecule before the results:

SMILES | IC50 [nM]
N#Cc1cccc(C(NC(=O)[C@@H]2CNC(=O)C2)c2cccc(Cl)c2)c1 (stereo partly drawn) [Example 2, (3S)-N-((3-chlorophenyl)(3-cyanophenyl)methyl)-5-oxopyrrolidine-3-carboxamide] | 820
O=C1C[C@H](C(=O)NC(c2ccc(Cl)cc2)c2ccc(F)c(C(F)(F)F)c2)CN1 (single isomer, unassigned) [Example 11B, (S)-N-((R or S)-(4-chlorophenyl)(4-fluoro-3-(trifluoromethyl)phenyl)methyl)-5-oxopyrrolidine-3-carboxamide] | 17
O=C1C[C@H](C(=O)NC(c2ccc(C(F)(F)F)cc2)c2ccc(F)c(Cl)c2)CN1 (single isomer, unassigned) [Example 17, (S—N—((R or S)-(3-chloro-4-fluorophenyl)(4-(trifluoromethyl)phenyl)methyl)-5-oxopyrrolidine-3-carboxamide] | 11
O=C1C[C@H](C(=O)NC(c2ccc(Cl)cc2)c2cccc(OC(F)(F)F)c2)CN1 (stereo partly drawn) [Example 10, (3S)-N-((4-chlorophenyl)(3-(trifluoromethoxy)phenyl)methyl)-5-oxopyrrolidine-3-carboxamide] | 52
O=C1C[C@H](C(=O)NC(c2ccc(F)c(Cl)c2F)[C@H]2C[C@H](C(F)(F)F)C2)CN1 (single isomer, unassigned) [Example 16, (S—N—((R or S)-(3-chloro-2,4-difluorophenyl)((trans)-3-(trifluoromethyl)cyclobutyl)methyl)-5-oxopyrrolidine-3-carboxamide] | 46
O=C1C[C@H](C(=O)NC(c2ccc(C(F)(F)F)cc2)c2ccc(C(F)(F)F)cc2)CN1 [Example 9, (S)-N-(bis(4-(trifluoromethyl)phenyl)methyl)-5-oxopyrrolidine-3-carboxamide] | 28
COc1cc(Cl)ccc1C(NC(=O)[C@@H]1CNC(=O)C1)c1ccc(Cl)cc1 (stereo partly drawn) [Example 5, (3S)-N-((4-chloro-2-methoxyphenyl)(4-chlorophenyl)methyl)-5-oxopyrrolidine-3-carboxamide] | 11
O=C1C[C@H](C(=O)NC(c2ccc(C(F)(F)F)cc2)c2cccc(C(F)(F)F)c2)CN1 (stereo partly drawn) [Example 8, (3S)-5-oxo-N-((3-(trifluoromethyl)phenyl)(4-(trifluoromethyl)phenyl)methyl)pyrrolidine-3-carboxamide] | 19
O=C1C[C@H](C(=O)NC(CCc2ccccc2)c2cccc(Cl)c2)CN1 (stereo partly drawn) [Example 26, (3S)-N-(1-(3-chlorophenyl)-3-phenylpropyl)-5-oxopyrrolidine-3-carboxamideNa] | 435
